From ChEMBL document CHEMBL1201862, “PubChem BioAssay data set” (2004)
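Method: 48-hour compound exposure of cells in 96-well plates, five concentrations, linear interpolation of endpoints. GI50 = concentration required for 50% inhibition of growth.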 Calls of active or inactive are those of the source. Cut-off read from the data, not from the text of the source: active = GI50 up to about 1.1 µM and inactive = higher.

Columns and labels:
Assay in all cases: NCI anticancer screen, dose series, 48 h
786-0 = system: 786-0
A549 = system: A549
DU-145 = system: DU-145
HCT-15 = system: HCT-15
HOP-62 = system: HOP-62
Hs-578T = system: Hs-578T
IGROV-1 = system: IGROV-1
KM12 = system: KM12
OVCAR-3 = system: OVCAR-3
OVCAR-5 = system: OVCAR-5
SF-268 = system: SF-268
SF-295 = system: SF-295
SF-539 = system: SF-539
SK-OV-3 = system: SK-OV-3
SN12C = system: SN12C
SNB-19 = system: SNB-19
SW-620 = system: SW-620
T47D = system: T47D
U-251 = system: U-251
UACC-62 = system: UACC-62

| Structure (SMILES) | GI50 (786-0) | GI50 (A549) | GI50 (DU-145) | GI50 (HCT-15) [µM] | GI50 (HOP-62) | GI50 (Hs-578T) | GI50 (IGROV-1) | GI50 (KM12) | GI50 (OVCAR-3) | GI50 (OVCAR-5) | GI50 (SF-268) | GI50 (SF-295) | GI50 (SF-539) | GI50 (SK-OV-3) | GI50 (SN12C) | GI50 (SNB-19) | GI50 (SW-620) | GI50 (T47D) | GI50 (U-251) | GI50 (UACC-62) |
| --- | --- | --- | --- | --- | --- | --- | --- | --- | --- | --- | --- | --- | --- | --- | --- | --- | --- | --- | --- | --- |
| CCc1nnc(S)n1/N=C\c1ccc(-c2ccccc2[N+](=O)[O-])o1 | 45.6 µM (inactive) | 42.9 µM (inactive) | 53.5 µM (inactive) | 30.3 | 56.5 µM (inactive) | 37.4 µM (inactive) | 31.7 µM (inactive) | 31.8 µM (inactive) | 18.2 µM (inactive) | 50.7 µM (inactive) | 36.7 µM (inactive) | 28.7 µM (inactive) | 29.8 µM (inactive) | 36.1 µM (inactive) | 47.3 µM (inactive) | > 100 µM (inactive) | 41.7 µM (inactive) | 43.9 µM (inactive) | 38.5 µM (inactive) | 37.6 µM (inactive) |
| Cc1c(C)c(S(=O)(=O)N(CCCCCON)OCCCN)c(C)c2c1OC(C)(C)CC2 | 16.7 µM (inactive) | 13.4 µM (inactive) | 0.883 µM (active) | 15.2 | 16 µM (inactive) | 19.3 µM (inactive) | 10 µM (inactive) | 13.9 µM (inactive) | 14.5 µM (inactive) | 14.9 µM (inactive) | 16.8 µM (inactive) | 15.2 µM (inactive) | 15.2 µM (inactive) | 14.5 µM (inactive) | 15.4 µM (inactive) | 15.5 µM (inactive) | 15 µM (inactive) | 5 µM (inactive) | 12.8 µM (inactive) | 14.3 µM (inactive) |
| O=C(O)c1cccc(S(=O)(=O)NN2C(=O)CSC2c2ccc(Cl)cc2Cl)c1 (stereo not given) | 16 µM (inactive) | > 100 µM (inactive) | > 100 µM (inactive) | 30.2 | 44.9 µM (inactive) | 19 µM (inactive) | > 100 µM (inactive) | 41.7 µM (inactive) | 36.1 µM (inactive) | > 100 µM (inactive) | 36.2 µM (inactive) | 51.6 µM (inactive) | 19.5 µM (inactive) | > 100 µM (inactive) | 25.8 µM (inactive) | 49.5 µM (inactive) | 34.2 µM (inactive) | > 100 µM (inactive) | 21.4 µM (inactive) | 28.6 µM (inactive) |
| Cn1c(=S)sc2nc3ccccc3n2c1=S | 12.7 µM (inactive) | 24.7 µM (inactive) | 5.35 µM (inactive) | 13.2 | 17 µM (inactive) | 21.6 µM (inactive) | 12.8 µM (inactive) | 10.2 µM (inactive) | 12.1 µM (inactive) | 15.3 µM (inactive) | 10.9 µM (inactive) | 18.8 µM (inactive) | 12.8 µM (inactive) | 10.4 µM (inactive) | 10.6 µM (inactive) | 13.7 µM (inactive) | 12 µM (inactive) | 9.84 µM (inactive) | 11.5 µM (inactive) | 11.4 µM (inactive) |
| CC(=O)O[C@@]12[C@@H]3O[C@@]4(O)C[C@]5(C)[C@H]6C[C@@](C(C)C)(O[C@H]5c5ccoc5)O[C@H]1[C@]6(C4)O[C@]2(O)C(C)=CC3(C)C | 64.4 µM (inactive) | > 100 µM (inactive) | > 100 µM (inactive) | > 100 | > 100 µM (inactive) | > 100 µM (inactive) | > 100 µM (inactive) | > 100 µM (inactive) | > 100 µM (inactive) | > 100 µM (inactive) | > 100 µM (inactive) | > 100 µM (inactive) | > 100 µM (inactive) | > 100 µM (inactive) | > 100 µM (inactive) | 63.2 µM (inactive) | > 100 µM (inactive) | > 100 µM (inactive) | > 100 µM (inactive) | > 100 µM (inactive) |
| c1ccc2c(-c3ccnc(-c4c[nH]c5ccccc45)n3)c[nH]c2c1 | 2.12 µM (inactive) | 3.27 µM (inactive) | 12.4 µM (inactive) | 3.19 | 10.4 µM (inactive) | 2.81 µM (inactive) | < 0.01 µM (active) | 3.94 µM (inactive) | 6.4 µM (inactive) | > 100 µM (inactive) | 10.6 µM (inactive) | 2.93 µM (inactive) | 4.37 µM (inactive) | 10.7 µM (inactive) | 2.78 µM (inactive) | 4.81 µM (inactive) | 4.86 µM (inactive) | 3.85 µM (inactive) | 3.86 µM (inactive) | 1.95 µM (inactive) |
